For five cell lines, relative viability results are on record in the supplement of paper PMC10307832.

Holding throughout (experiment): relative viability (nuclei count vs DMSO), 5 days (fraction); higher = more cells survive
Compound in the experiment “DM3189 + Decitabine”: C1CN(CCN1)C2=CC=C(C=C2)C3=CN4C(=C(C=N4)C5=CC=NC6=CC=CC=C56)N=C3 [DM3189] + Nc1ncn([C@H]2C[C@H](O)[C@@H](CO)O2)c(=O)n1 [Decitabine] (partner 2 µM)
A digest of the protocol:
(§1)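 Lung cancer cell lines, seeded in 1536-well plates, were treated the following day by pin tool with a single drug or with five library-drug doses (not always all listed) in √10 steps on top of a fixed anchor-drug dose. Cells were fixed and nuclei stained in one step after 5 days, and nuclei were counted. Relative viability is the nuclei count for treated wells divided by that for vehicle wells, reported as medians of duplicate plates.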

Compound in the experiment “DM3189 + Dasatinib”: C1CN(CCN1)C2=CC=C(C=C2)C3=CN4C(=C(C=N4)C5=CC=NC6=CC=CC=C56)N=C3 [DM3189] + Cc1nc(Nc2ncc(C(=O)Nc3c(C)cccc3Cl)s2)cc(N2CCN(CCO)CC2)n1 [Dasatinib] (partner 0.075 µM)
A digest of the protocol:
as §1

Compound in the experiment “DM3189 + Navitoclax”: C1CN(CCN1)C2=CC=C(C=C2)C3=CN4C(=C(C=N4)C5=CC=NC6=CC=CC=C56)N=C3 [DM3189] + CC1(C)CCC(c2ccc(Cl)cc2)=C(CN2CCN(c3ccc(C(=O)NS(=O)(=O)c4ccc(N[C@H](CCN5CCOCC5)CSc5ccccc5)c(S(=O)(=O)C(F)(F)F)c4)cc3)CC2)C1 [Navitoclax] (partner 0.5 µM)
Summed up:
as §1

Compound in the experiment “DM3189 + Foretinib”: C1CN(CCN1)C2=CC=C(C=C2)C3=CN4C(=C(C=N4)C5=CC=NC6=CC=CC=C56)N=C3 [DM3189] + COc1cc2c(Oc3ccc(NC(=O)C4(C(=O)Nc5ccc(F)cc5)CC4)cc3F)ccnc2cc1OCCCN1CCOCC1 [Foretinib] (partner 0.25 µM)
Summed up:
as §1

Compound in the experiment “DM3189 + Olaparib”: C1CN(CCN1)C2=CC=C(C=C2)C3=CN4C(=C(C=N4)C5=CC=NC6=CC=CC=C56)N=C3 [DM3189] + O=C(c1cc(Cc2n[nH]c(=O)c3ccccc23)ccc1F)N1CCN(C(=O)C2CC2)CC1 [Olaparib] (partner 8 µM)
A digest of the protocol:
as §1

In the case of NCI-H1437, the relative viability in the experiment with DM3189 + Decitabine (first compound 0.08 µM) came to 0.6; with DM3189 + Decitabine (first compound 0.253 µM), 0.542; in the experiment with DM3189 + Decitabine (first compound 0.8 µM), 0.554; with DM3189 + Decitabine (first compound 2.53 µM) it was 0.571; in the experiment with DM3189 + Dasatinib (first compound 0.08 µM), 0.434; in the experiment with DM3189 + Dasatinib (first compound 0.253 µM) it was 0.395. In addition, the relative viability with DM3189 + Dasatinib (first compound 0.8 µM) turned out to be 0.384; in the experiment with DM3189 + Dasatinib (first compound 2.53 µM), 0.385; with DM3189 + Navitoclax (first compound 0.08 µM), 0.994; with DM3189 + Navitoclax (first compound 0.253 µM), 1.1; with DM3189 + Navitoclax (first compound 0.8 µM) it was 1.06; with DM3189 + Navitoclax (first compound 2.53 µM), 1.05. Further, the relative viability is 1.29 in the experiment with DM3189 + Foretinib (first compound 0.08 µM); 1.33 with DM3189 + Foretinib (first compound 0.253 µM); 1.33 with DM3189 + Foretinib (first compound 0.8 µM); 1.33 in the experiment with DM3189 + Foretinib (first compound 2.53 µM); 0.627 with DM3189 + Olaparib (first compound 0.08 µM); 0.633 with DM3189 + Olaparib (first compound 0.253 µM). Also, the figures for the relative viability with DM3189 + Olaparib (first compound 0.8 µM) and in the experiment with DM3189 + Olaparib (first compound 2.53 µM) were 0.609 and 0.592, respectively.
For SK-LU-1, the relative viability in the experiment with DM3189 + Decitabine (first compound 0.08 µM) was 0.567; with DM3189 + Decitabine (first compound 0.253 µM), 0.585; with DM3189 + Decitabine (first compound 0.8 µM) it was 0.537; with DM3189 + Decitabine (first compound 2.53 µM) it was 0.451; with DM3189 + Dasatinib (first compound 0.08 µM) it was 0.143; with DM3189 + Dasatinib (first compound 0.253 µM), 0.109. Also, the relative viability in the experiment with DM3189 + Dasatinib (first compound 0.8 µM) amounted to 0.104; with DM3189 + Dasatinib (first compound 2.53 µM), 0.136; with DM3189 + Navitoclax (first compound 0.08 µM) it was 0.686; with DM3189 + Navitoclax (first compound 0.253 µM), 0.595; in the experiment with DM3189 + Navitoclax (first compound 0.8 µM) it was 0.564; with DM3189 + Navitoclax (first compound 2.53 µM), 0.397. Besides, the relative viability in the experiment with DM3189 + Foretinib (first compound 0.08 µM) was 0.77; with DM3189 + Foretinib (first compound 0.253 µM), 0.66; with DM3189 + Foretinib (first compound 0.8 µM), 0.492; in the experiment with DM3189 + Foretinib (first compound 2.53 µM), 0.479; with DM3189 + Olaparib (first compound 0.08 µM), 0.449; with DM3189 + Olaparib (first compound 0.253 µM), 0.398. Also, the relative viability stood at 0.35 with DM3189 + Olaparib (first compound 0.8 µM) and 0.372 with DM3189 + Olaparib (first compound 2.53 µM).
Consider EPLC-272H, for which the relative viability amounted to 0.374 with DM3189 + Decitabine (first compound 0.08 µM); 0.359 with DM3189 + Decitabine (first compound 0.253 µM); 0.364 with DM3189 + Decitabine (first compound 0.8 µM); 0.424 with DM3189 + Decitabine (first compound 2.53 µM); 0.406 in the experiment with DM3189 + Dasatinib (first compound 0.08 µM); 0.375 with DM3189 + Dasatinib (first compound 0.253 µM). Also, the relative viability came to 0.276 in the experiment with DM3189 + Dasatinib (first compound 0.8 µM); 0.265 with DM3189 + Dasatinib (first compound 2.53 µM); 1.25 with DM3189 + Navitoclax (first compound 0.08 µM); 1.07 with DM3189 + Navitoclax (first compound 0.253 µM); 1.11 with DM3189 + Navitoclax (first compound 0.8 µM); 1.08 in the experiment with DM3189 + Navitoclax (first compound 2.53 µM). For the same cell line, the relative viability was 0.677 with DM3189 + Foretinib (first compound 0.08 µM); 0.67 with DM3189 + Foretinib (first compound 0.253 µM); 0.783 in the experiment with DM3189 + Foretinib (first compound 0.8 µM); 0.59 in the experiment with DM3189 + Foretinib (first compound 2.53 µM); 0.669 in the experiment with DM3189 + Olaparib (first compound 0.08 µM); 0.714 in the experiment with DM3189 + Olaparib (first compound 0.253 µM). Moreover, the values for the relative viability in the experiment with DM3189 + Olaparib (first compound 0.8 µM) and with DM3189 + Olaparib (first compound 2.53 µM) were 0.735 and 0.565, respectively.
Take NCI-H647: the relative viability with DM3189 + Decitabine (first compound 0.08 µM) came to 0.365; in the experiment with DM3189 + Decitabine (first compound 0.253 µM), 0.43; in the experiment with DM3189 + Decitabine (first compound 0.8 µM), 0.418; with DM3189 + Decitabine (first compound 2.53 µM), 0.403; with DM3189 + Dasatinib (first compound 0.08 µM), 0.264; in the experiment with DM3189 + Dasatinib (first compound 0.253 µM) it was 0.193. The relative viability in the experiment with DM3189 + Dasatinib (first compound 0.8 µM) came to 0.215; in the experiment with DM3189 + Dasatinib (first compound 2.53 µM), 0.157; in the experiment with DM3189 + Navitoclax (first compound 0.08 µM) it was 1.26; in the experiment with DM3189 + Navitoclax (first compound 0.253 µM), 0.959; in the experiment with DM3189 + Navitoclax (first compound 0.8 µM), 0.767; with DM3189 + Navitoclax (first compound 2.53 µM), 0.657. For the same cell line, the relative viability in the experiment with DM3189 + Foretinib (first compound 0.08 µM) is 1.06; in the experiment with DM3189 + Foretinib (first compound 0.253 µM) it was 1.13; with DM3189 + Foretinib (first compound 0.8 µM) it was 1.08; with DM3189 + Foretinib (first compound 2.53 µM), 1.01; with DM3189 + Olaparib (first compound 0.08 µM) it was 0.459; with DM3189 + Olaparib (first compound 0.253 µM), 0.492. The relative viability came to 0.368 with DM3189 + Olaparib (first compound 0.8 µM) and 0.163 in the experiment with DM3189 + Olaparib (first compound 2.53 µM).
In the case of NCI-H441, the relative viability stood at 0.307 in the experiment with DM3189 + Decitabine (first compound 0.08 µM); 0.227 with DM3189 + Decitabine (first compound 0.253 µM); 0.216 with DM3189 + Decitabine (first compound 0.8 µM); 0.219 with DM3189 + Decitabine (first compound 2.53 µM); 0.69 with DM3189 + Dasatinib (first compound 0.08 µM); 0.581 with DM3189 + Dasatinib (first compound 0.253 µM). The relative viability with DM3189 + Dasatinib (first compound 0.8 µM) was found to be 0.625; in the experiment with DM3189 + Dasatinib (first compound 2.53 µM), 0.513; with DM3189 + Navitoclax (first compound 0.08 µM), 0.567; with DM3189 + Navitoclax (first compound 0.253 µM), 0.431; in the experiment with DM3189 + Navitoclax (first compound 0.8 µM), 0.615; with DM3189 + Navitoclax (first compound 2.53 µM) it was 0.62. For the same cell line, the relative viability with DM3189 + Foretinib (first compound 0.08 µM) is 1.01; in the experiment with DM3189 + Foretinib (first compound 0.253 µM), 0.726; in the experiment with DM3189 + Foretinib (first compound 0.8 µM), 1.24; in the experiment with DM3189 + Foretinib (first compound 2.53 µM), 0.702; with DM3189 + Olaparib (first compound 0.08 µM), 0.689; with DM3189 + Olaparib (first compound 0.253 µM), 0.485. For the same cell line, the relative viability with DM3189 + Olaparib (first compound 0.8 µM) is 0.663; in the experiment with DM3189 + Olaparib (first compound 2.53 µM), 0.583.
